Measurements: US9499823B2, “Constructs expressing chimeric receptors and use thereof for the controlled activation of defence response to pathogens in plants” (priority 2009, dated 2016)
Entries after “also recorded” stand apart in the source; their conditions may differ.

Tests used:
[1] = test system: agroinfiltrated leaves of N. tabacum ecotype SR1; experiment: Receptor internalization in agroinfiltrated tobacco leaves; type: cell-based, Nicotiana tabacum
Procedure: E) Relative variation of fluorescence in agroinfiltrated tobacco leaves expressing EFR, FLS2, eJMC and TMC and treated with 10 μM elfl8 or 10 μM flg22 for 30 min.
The GFP-dependent fluorescence was monitored from 2 to 4 days post infection in cells of the lower epidermis. Pieces of leaf were randomly cut from the infected area and mounted in water or supplemented with elicitors for microscopic observations. Flg22 and elfl8 were used at 10 μM while oligosaccharides were used at 100 μg/mL. Materials were analyzed using a Leica DM IRE epifluorescence microscope equipped with a digital cooled camera (DFC350FX R2; Leica). GFP fluorescence was excited with a 488-nm laser line, and emitted fluorescence was collected at 543-nm. The Leica Confocal Software and Adobe Photoshop 5.0 were used for post-acquisition image processing. All samples were imaged with the 40× or 100× oil objectives. Pictures were taken in Kahlman frame giving an average of 16 scans for the dynamics of internalization and 4 scans for the cellular localizations.
The behaviour of TMC and eJMC upon treatment with flg22 and elfl8 was also analysed in agroinfiltrated leaves of N. tabacum ecotype SR1 and compared to that of EFR and FLS2. […] Instead, in the eJMC expressing plants fluorescence decreased within 10-30 min after stimulation with flg22, at an extent similar to that observed in Arabidopsis, i.e. by 25% and 35% after 20 min and 30 min, respectively (FIG. 3E).

[2] = test system: ethylene biosynthesis in tobacco leaves; experiment: Induction of ethylene biosynthesis in agroinfiltrated tobacco leaf explants; type: cell-based, Nicotiana tabacum; conditions: for ethylene release induced by flg22: flg22, 2 h, compared with EFR-expressing explants as negative controls
Procedure: F) Induction of ethylene biosynthesis in agroinfiltrated tobacco leaves expressing the fluorescent EFR, FLS2, TMC, eJMC and eJMC^Y859A. NC: negative control, represented by agroinfiltrated leaf tissues expressing fluorescent EFR or FLS2 and elicited with flg22 or elfl8, respectively. Results are averages±standard error (n=3).
Excised infiltrated leaf sectors were stimulated for 2 h with water or the elicitor ([…] and 100 μg/ml for OGs). Values are means±s.e.m. (N=3).
E) Induction of ethylene biosynthesis in agroinfiltrated tobacco leaves expressing EFR, WAK1, WEG and EWAK. Each construct was stimulated for 2 h with elfl8 (10 μM) or OGs (100 μg/mL). NC: negative control, represented by agroinfiltrated leaf tissue expressing EFR or FLS2 when OGs or elfl8, respectively, were used for elicitation. Error bars indicate the standard error of three independent replicates.
(A) Induction of ethylene biosynthesis in agroinfiltrated tobacco explants expressing EFR, WAK1, WEG and EWAK. […] Agroinfiltrated leaf tissues expressing EFR or WEG and elicited with OGs or elfl8 respectively, represented our negative control. Values are means±s.e.m. (N=3). (B) Elicitor-induced gene expression in untransformed Col-0 and Col-0 efr plants, and in transgenic Arabidopsis Col-0 efr plants stably expressing WEG. Accumulation of At3g22270 and At4g37640 transcripts was analysed by semi-quantitative PCR, using the UBQ5 gene for normalization. Adult leaves were syringe-infiltrated with water, OGs (25 μg/ml) or elfl8 (10 μM) for 3 h. The experiment was repeated three times with similar results. The same experiment was performed in a second independent transgenic line expressing WEG with similar results.
Approximately 150 mg of tobacco agroinfiltrated leaf were cut in small slices and extensively washed with sterile distilled water. The explants were placed in sealed 10 mL flasks containing 2 mL of sterile water alone or supplemented with 100 mg L^−1 OGs, or 1 μM flg22 or 10 μM elfl8. 450 μl headspace samples were withdrawn from the vial after 2 h treatment and analyzed by gas chromatography-mass spectrometry using an Agilent 6850A gas chromatograph coupled to a 5973N quadrupole mass selective detector (Agilent Technologies, Palo Alto, Calif., USA). Chromatographic separations were carried out an HP Plot-Q fused-silica capillary column (30 m×0.32 mm i.d.) coated with polystyrene-divinylbenzene (film thickness 0.20 μm) as stationary phase. Injection mode: splitless at a temperature of 220° C. The initial temperature of the oven was held at 50° C. for 8 min then ramped to 220° C. at a rate of 15° C./min and held for 5 min. Helium was used as carrier gas at a constant flow of 1.0 ml/min. Mass spectra were collected both in full scan and in SIM mode monitoring the ions m/z m/z 26, m/z 27 and m/z 28 (ionization energy 70 eV; ion source 280° C.; ion source vacuum 10^−5 Torr).

[3] = test system: Agrobacterium tumefaciens GV3101; experiment: Growth of Agrobacterium in N. tabacum tissues transiently expressing receptor proteins; type: in vivo; conditions: 24 h after inoculation, tobacco tissues expressing the receptor
Procedure: F) Growth of Agrobacterium in N. tabacum tissues transiently expressing receptor proteins. Tobacco leaves were infiltrated with Agrobacterium expressing the indicated receptors and the number of Agrobacterium colony-forming units (c.f.u.) in the tissues was analyzed soon after infiltration (white bars) and 24 h (gray bars). EFR and eJMC were used as positive and negative controls, respectively. For each receptor, three samples were analyzed in five independent experiments. *, p<0.005.
(A) Growth of A. tumefaciens in N. tabacum tissues transiently expressing receptor proteins. Tobacco leaves were infiltrated with Agrobacterium carrying the indicated receptor constructs and the number of Agrobacterium colony-forming units (c.f.u.) in the tissues was analyzed immediately after infiltration (white bars) and after 24 h (gray bars). EFR and eJMC were used as positive and negative controls, respectively. For each receptor, three samples were analyzed in five independent experiments. Asterisks indicate statistically significant differences against control (Col-0 for WAK1 plants and Col-0 efr for WEG and EWAK plants). (B) Lesion development in Arabidopsis wild type (Col-0) and mutant Col-0 efr plants and in transgenic plants expressing WAK1, WEG and EWAK plants inoculated with B. cinerea at 48 h post-inoculation. Values are means±s.e.m. of at least 16 lesions. The same experiment was performed in a second independent transgenic line expressing WAK1 with similar results. Asterisks indicate statistically significant differences against control (Col-0 for WAK1 plants and Col-0 efr for WEG and EWAK plants).
Agrobacterium tumefaciens GV3101 strain infections was performed as described in Katagiri et al., (2002) and using a concentration of Agrobacterium corresponding at an OD600 of 1.0 in 10 mM MgCl2 and 600 μM acetosyringone. After 24 h of infiltration, serial dilution of Agrobacterium colonies were deposited on LB agar supplemented with gentamycin and rifampicin and grown for 2-3 days at 28° C. in the dark. At least 5 independent plants and 3 different leaves by plant, were used per experiment. Pectobacterium carotovorum subsp. carotovorum infections Pectobacterium carotovorum subsp. carotovorum (formely Erwinia carotovora; Gardan et al., 2003) (strain DMSZ 30169) was obtained from DSMZ GmbH (Germany). A liquid colture using 10 ml LB medium was prepared. After 16 h of growth at 28° C. on rotary shaker at 250 rpm, bacterial cells were harvested by centrifugation and the pellet was resuspended in 50 mM potassium phosphate buffer pH 7.0 corresponding to 5×10^7 CFU/ml.

FLS2 [reference compound]
internalization after stimulation with flg22 ([1]; 10 μM flg22, 30 min): Neither FLS2 nor TMC underwent internalization | ethylene release induced by flg22 [2]: only a weak response

eJMC: chimera (Arg806FLS2-Val650EFR): LRR and eJM domains of FLS2 fused upstream of TM, iJM and kinase domains of EFR, GFP-fused
fluorescence decrease after stimulation with flg22 ([1]; 10 μM flg22, after 20 min): 25% | fluorescence decrease after stimulation with flg22 ([1]; 10 μM flg22, after 30 min): 35% | ethylene accumulation upon stimulation with elfl8 ([2]; elfl8 10 μM, 2 h): did not | ethylene release induced by flg22 [2]: significantly higher | effect on the number of living Agrobacterium cells [3]: no significant effect; also recorded: No significant change

B1: WEG: chimeric receptor: WAK1 ectodomain fused to the TM-iJM-kinase portion of EFR, GFP-fused (protein)
chain: QHQPGENCQNKCGNITIEYPFGISSGCYYPGNESFSITCKEDRPHVLSDIEVANFNHSGQLQVLLNRSSTCYDEQGKKTEEDSSFTLENLSLSANNKLTAVGCNALSLLDTFGMQNYSTACLSLCDSPPEADGECNGRGCCRVDVSAPLDSYTFETTSGRIKHMTSFHDFSPCTYAFLVEDDKFNFSSTEDLLNLRNVMRFPVLLDWSVGNQTCEQVGSTSICGGNSTCLDSTPRNGYICRCNEGFDGNPYLSAGCQDVNECTTSSTIHRHNCSDPKTCRNKVGGFYCKCQSGYRLDTTTMSCKRKEVVSGICIGIASLLLIIIVASLCWFMKRKKKNNASDGNPSDSTTLGMFHEKVSYEELHSATSRFSSTNLIGSGNFGNVFKGLLGPENKLVAVKVLNLLKHGATKSFMAECETFKGIRHRNLVKLITVCSSLDSEGNDFRALVYEFMPKGSLDMWLQLEDLERVNDHSRSLTPAEKLNIAIDVASALEYLHVHCHDPVAHCDIKPSNILLDDDLTAHVSDFGLAQLLYKYDRESFLNQFSSAGVRGTIGYAAPEYGMGGQPSIQGDVYSFGILLLEMFSGKKPTDESFAGDYNLHSYTKSILSGCTSSGGSNAIDEGLRLVLQVGIKCSEEYPRDRMRTDEAVRELISIRSKFFSSKTTITESPRDAPQSSPQEWMLNTDMHTM
modifications: left off: large carriers
ethylene accumulation induced by OGs relative to negative control ([2]; OGs 100 μg/mL, 2 h, negative control OG-stimulated EFR-expressing tissues): 2.4 times | effect on the number of living Agrobacterium cells [3]: no significant effect; also recorded: No significant change

B2: EFR: Arabidopsis LRR receptor kinase Elongation Factor Tu Receptor (AT5G20480); GFP-fused control (protein)
chain: RFSNETDMQALLEFKSQVSENNKREVLASWNHSSPFCNWIGVTCGRRRERVISLNLGGFKLTGVISPSIGNLSFLRLLNLADNSFGSTIPQKVGRLFRLQYLNMSYNLLEGRIPSSLSNCSRLSTVDLSSNHLGHGVPSELGSLSKLAILDLSKNNLTGNFPASLGNLTSLQKLDFAYNQMRGEIPDEVARLTQMVFFQIALNSFSGGFPPALYNISSLESLSLADNSFSGNLRADFGYLLPNLRRLLLGTNQFTGAIPKTLANISSLERFDISSNYLSGSIPLSFGKLRNLWWLGIRNNSLGNNSSSGLEFIGAVANCTQLEYLDVGYNRLGGELPASIANLSTTLTSLFLGQNLISGTIPHDIGNLVSLQELSLETNMLSGELPVSFGKLLNLQVVDLYSNAISGEIPSYFGNMTRLQKLHLNSNSFHGRIPQSLGRCRYLLDLWMDTNRLNGTIPQEILQIPSLAYIDLSNNFLTGHFPEEVGKLELLVGLGASYNKLSGKMPQAIGGCLSMEFLFMQGNSFDGAIPDISRLVSLKNVDFSNNNLSGRIPRYLASLPSLRNLNLSMNKFEGRVPTTGVFRNATAVSVFGNTNICGGVREMQLKPCIVQASPRKRKPLSVRKKVVSGICIGIASLLLIIIVASLCWFMKRKKKNNASDGNPSDSTTLGMFHEKVSYEELHSATSRFSSTNLIGSGNFGNVFKGLLGPENKLVAVKVLNLLKHGATKSFMAECETFKGIRHRNLVKLITVCSSLDSEGNDFRALVYEFMPKGSLDMWLQLEDLERVNDHSRSLTPAEKLNIAIDVASALEYLHVHCHDPVAHCDIKPSNILLDDDLTAHVSDFGLAQLLYKYDRESFLNQFSSAGVRGTIGYAAPEYGMGGQPSIQGDVYSFGILLLEMFSGKKPTDESFAGDYNLHSYTKSILSGCTSSGGSNAIDEGLRLVLQVGIKCSEEYPRDRMRTDEAVRELISIRSKFFSSKTTITESPRDAPQSSPQEWMLNTDMHTM
internalization response upon stimulation with elfl8 ([1]; 10 μM elfl8, 30 min): no response | ethylene accumulation upon stimulation with elfl8 ([2]; elfl8 10 μM, 2 h): accumulated ethylene | release of ethylene induced by elfl8 relative to negative control ([2]; elfl8 10 μM, 2 h, negative control FLS2-expressing explants): 3.8 times | decrease in the number of living Agrobacterium cells ([3]; p<0.005): 30%
